# In PMC8328489, “Automated Synthesis and Initial Evaluation of (4′-Amino-5′,8′-difluoro-1′H-spiro[piperidine-4,2′-quinazolin]-1-yl)(4-[^18F]fluorophenyl)methanone for PET/MR Imaging of Inducible Nitric Oxide Synthase” (Molecular Imaging, 2021):
# Several values for one entry are separate records, joined by “and”; a condition that tells them apart may be missing. Identical values can stand only once.
# Experiments:
# iNOS [1] = molecular target: T1, iNOS (Mus musculus, UniProt P29477); assay: Pharmacokinetic two-compartment modeling of dynamic PET; format: in vivo, C57BL/6 mice; settings: mouse whole brain
# T1 construct: tracer to detect iNOS expression in mice injected with lipopolysaccharide (LPS) to induce brain inflammation; from tissue; host or cells: brain of living C57BL/6 mice (LPS-induced); fixed brain sections for IHC
# Excerpt: A time activity curve (TAC) for a carotid artery region of interest was used to determine the dynamic PET image-derived [^18F]FBAT input function in uncorrected blood plasma. The corresponding TACs for [^18F]FBAT were derived by applying images from mice administered [^18F]FBAT to the image-derived plasma TAC. Model parameters were estimated for influx constant k1 (mL/cm^3/min^−1), efflux (k2) (min^−1) rate of radioligand diffusion between plasma and brain compartment. Exchange between compartments k3 (min^−1) and k4 (min^−1) was also estimated. The net influx constant, Ki (min^−1), parameter that describes the rate of binding to the iNOS was calculated as (2) KiFBAT=k1FBAT×k3FBAT/k2FBAT+k3FBAT.
# Compartmental modeling, pharmacokinetic analyses, and generation of pixel-by-pixel parametric images were accomplished using PMOD 4.0 software (PMOD Technologies Ltd., Zurich, Switzerland).
# [2] = system: murine microglial BV2 cells; assay: In vitro [^18F]FBAT uptake assay; format: cell-based
# Description: BV2 cells were cultured as described above, washed three times with fresh medium, pretreated with a selective iNOS inhibitor, aminoguanidine (AMG), (0, 1, or 0.1 mM) for 1 h, and then treated with cell culture media containing LPS and the inhibitor. At the indicated time points, the cells were washed thrice with fresh cell culture media, then incubated in fresh cell culture media continuing the radiotracer [^18F]FBAT at 0.37 MBq/mL for 15, 30, or 60 min, harvested by gentle scraping, and pelleted by centrifugation at 1500 g for 2 min. The weight of the cell pellet and 0.1 mL of the radioactive supernatant was determined. A Packard 5500 gamma counter (PerkinElmer, Billerica, MA, USA) was used to quantify radioactivity as cpm/g cells or cpm/mL media, respectively. Cell-to-medium radioactivity concentration ratios were calculated and plotted over time to evaluate the kinetics of accumulation of the radiotracer.
# iNOS is the enzyme responsible for NO generation in BV2 cells; therefore, accumulation of [^18F]FBAT in BV2 cells before or after iNOS inhibitor versus NO production was also assessed.
# [3] = Log P measurement (1-octanol/phosphate buffer, UV); format: physicochemical; settings: 1-octanol / 0.02 M phosphate buffer; 1-octanol / phosphate buffer pH 7.4
# Description: The partition coefficient of FBAT, determined between 1-octanol and 0.02 M phosphate buffer at pH 7.4, was measured by UV spectrophotometer (SPARK 10 M from Tecan) at wavelength 230 nm.
# iNOS [4] = molecular target: T1, iNOS; assay: In vivo brain PET/MR imaging of LPS-induced iNOS expression (SUV, SUR, AUC) incl. aminoguanidine blocking; set-up: species or system C57BL/6 mice
# Description: For the imaging experiments, twelve C57BL/6 mice were injected i.p. with 0.9% NaCl, eighteen mice were injected i.p. with 0.1 mL of LPS in saline (5 mg/kg), and six mice were injected i.p. with aminoguanidine (Sigma-Aldrich) 30 min prior to 5 mg/kg LPS. In vivo imaging was performed 3 h or 24 h after injection of LPS; then, the mice were immediately humanely euthanized and the brains were removed for immunostaining.
# Mice (n = 30) were anesthetized with 2% isoflurane (in oxygen) and injected with [^18F]FBAT (11.1 MBq; 0.3 mCi) via the tail vein. Dynamic PET images were obtained in fully three-dimensional list mode for 30 min using a small animal SuperArgus 2r PET system (SEDECAL, Madrid, Spain) or 7T PETMR Inline (Bruker, Rheinstetten, Germany; energy window, 350-650 keV; timing window, 6 ns). Images were acquired every 10 s for 12 images, 60 s for three images, 300 s for three images, or 600 s for […]. The anatomical structure of the brain was imaged using T2 MRI. The MRI sequences included 0.5 mm thick T2 Turbo RARE high-resolution images (TR = 3000 ms, TE, 46 ms, matrix, 512 × 256, average, 40, slice number, 30, field of view, 20 × 10 mm).
# After determining the optimal imaging time point for [^18F]FBAT, we performed a blocking study using a selective iNOS inhibitor to assess the specificity of the tracer for iNOS. Separate 7T PET/MR studies with [^18F]FBAT were performed for mice (n = 6) administered a bolus of aminoguanidine (50 mg/kg i.p.) 30 min prior to administration of [^18F]FBAT. The time course of [^18F]FBAT radioactivity in the brain after administration of the iNOS inhibitor was assessed and compared to that of the mice in the LPS 3 h group.
# Images were reconstructed by the Fourier rebinning algorithm and two-dimensional filtered back projection using a ramp filter with a cutoff at Nyquist. The regional radioactivity concentration (kBq/cc) of [^18F]FBAT was estimated from the mean pixel values within the region of interest (ROI) corresponding to MR images of various organs and regions of the brain. ROI for carotid artery, heart muscle, lung, liver, spleen, and kidney were defined and time activity curves (TACs) generated. TACs for whole brain, cortex, cerebellum, and brainstem were also determined as described above.
# The concentration of radioactivity (kBq/cc, μCi/cc) was converted to standardized uptake value (SUV), and the mean and standard deviation (SD) of radiotracer accumulation values were calculated for different organs and regions of the brain. Data were analyzed with PMOD 4.0 software (PMOD Technologies Ltd., Zurich, Switzerland).
# [5] = LPS 5 mg/kg, 3 h, 30 min post i.v. tracer
# [6] = LPS 5 mg/kg, 24 h, 30 min post i.v. tracer
# [7] = LPS 3 h + aminoguanidine 50 mg/kg pretreatment
# [8] = control mice, 30 min post i.v. tracer
smiles,measurement,setting,value
"NC1=NC2(CCN(C(=O)c3ccc([18F])cc3)CC2)Nc2c(F)ccc(F)c21 [[^18F]FBAT, (4′-amino-5′,8′-difluoro-1′H-spiro[piperidine-4,2′-quinazolin]-1-yl)(4-[^18F]fluorophenyl)methanone]",k1 (influx rate constant),iNOS [1]; LPS 5 mg/kg,0.633 ± 0.002 min⁻¹
same,k2 (efflux rate constant),iNOS [1]; LPS 5 mg/kg,0.608 ± 0.054 min⁻¹
same,k3,iNOS [1]; LPS 5 mg/kg,0.006 ± 0.003^∗ min^−1
same,k1 (influx rate constant),iNOS [1]; control,0.957 ± 0.250 min⁻¹
same,k2 (efflux rate constant),iNOS [1]; control,0.777 ± 0.101 min⁻¹
same,k3,iNOS [1]; control,2.86E − 05 ± 4.48E − 05 min^−1
same,"[^18F]FBAT accumulation, LPS-induced vs control BV2 cells",[2]; 60 min,more than 1.7 fold
same,cells-per-medium concentration ratio at plateau,"[2]; LPS-induced BV2 cells, after 1 h",180–200
same,cells-per-medium concentration ratio at plateau,[2]; control BV2 cells,~100
same,logP,[3],1.4
same,"SUV, brainstem",iNOS [4]; [5],0.98 ± 0.09 SUV and 0.976 ± 0.244^∗ SUV
same,"SUV, cerebellum",iNOS [4]; [5],0.60 ± 0.03 SUV and 0.600 ± 0.066^∗ SUV
same,"SUV, cortex",iNOS [4]; [5],0.90 ± 0.07 SUV and 0.904 ± 0.251^∗ SUV
same,"SUV, whole brain",iNOS [4]; [5],1.43 ± 0.11 SUV and 1.428 ± 0.410^∗∗∗ SUV
same,"SUV, brainstem",iNOS [4]; [6],0.67 ± 0.07 SUV and 0.671 ± 0.148 SUV
same,"SUV, cerebellum",iNOS [4]; [6],0.54 ± 0.02 SUV and 0.542 ± 0.052 SUV
same,"SUV, cortex",iNOS [4]; [6],0.62 ± 0.02 SUV and 0.620 ± 0.041 SUV
same,"SUV, whole brain",iNOS [4]; [6],0.90 ± 0.13 SUV and 0.900 ± 0.270 SUV
same,"SUV, brainstem",iNOS [4]; [7],0.35 ± 0.10 SUV and 0.350 ± 0.055 SUV
same,"SUV, cerebellum",iNOS [4]; [7],0.31 ± 0.09 SUV and 0.310 ± 0.037 SUV
same,"SUV, cortex",iNOS [4]; [7],0.32 ± 0.09 SUV and 0.320 ± 0.063 SUV
same,"SUV, whole brain",iNOS [4]; [7],0.31 ± 0.08 SUV and 0.312 ± 0.055 SUV
same,"SUR (SUVLPS to SUVcon), brainstem",iNOS [4]; LPS 24 h,1.273 ± 0.163
same,"SUR (SUVLPS to SUVcon), cerebellum",iNOS [4]; LPS 24 h,1.233 ± 0.112
same,"SUR (SUVLPS to SUVcon), cortex",iNOS [4]; LPS 24 h,0.970 ± 0.303
same,"SUR (SUVLPS to SUVcon), whole brain",iNOS [4]; LPS 24 h,1.351 ± 0.451
same,"SUR (SUV ratio to control), brainstem",iNOS [4]; control mice,1.000
same,"SUR (SUV ratio to control), cerebellum",iNOS [4]; control mice,1.000
same,"SUR (SUV ratio to control), cortex",iNOS [4]; control mice,1.000
same,"SUR (SUV ratio to control), whole brain",iNOS [4]; control mice,1.000
same,"SUV, brainstem",iNOS [4]; [8],0.540 ± 0.153 SUV
same,"SUV, cerebellum",iNOS [4]; [8],0.448 ± 0.115 SUV
same,"SUV, cortex",iNOS [4]; [8],0.604 ± 0.150 SUV
same,"SUV, whole brain",iNOS [4]; [8],0.709 ± 0.200 SUV
same,"AUC0-30min, 3 h LPS group vs control group","iNOS [4]; whole brain, average",1.9 ± 0.21 fold
